Structures are written as SMILES.

human TrkA receptor, sequence (P04629 33-796): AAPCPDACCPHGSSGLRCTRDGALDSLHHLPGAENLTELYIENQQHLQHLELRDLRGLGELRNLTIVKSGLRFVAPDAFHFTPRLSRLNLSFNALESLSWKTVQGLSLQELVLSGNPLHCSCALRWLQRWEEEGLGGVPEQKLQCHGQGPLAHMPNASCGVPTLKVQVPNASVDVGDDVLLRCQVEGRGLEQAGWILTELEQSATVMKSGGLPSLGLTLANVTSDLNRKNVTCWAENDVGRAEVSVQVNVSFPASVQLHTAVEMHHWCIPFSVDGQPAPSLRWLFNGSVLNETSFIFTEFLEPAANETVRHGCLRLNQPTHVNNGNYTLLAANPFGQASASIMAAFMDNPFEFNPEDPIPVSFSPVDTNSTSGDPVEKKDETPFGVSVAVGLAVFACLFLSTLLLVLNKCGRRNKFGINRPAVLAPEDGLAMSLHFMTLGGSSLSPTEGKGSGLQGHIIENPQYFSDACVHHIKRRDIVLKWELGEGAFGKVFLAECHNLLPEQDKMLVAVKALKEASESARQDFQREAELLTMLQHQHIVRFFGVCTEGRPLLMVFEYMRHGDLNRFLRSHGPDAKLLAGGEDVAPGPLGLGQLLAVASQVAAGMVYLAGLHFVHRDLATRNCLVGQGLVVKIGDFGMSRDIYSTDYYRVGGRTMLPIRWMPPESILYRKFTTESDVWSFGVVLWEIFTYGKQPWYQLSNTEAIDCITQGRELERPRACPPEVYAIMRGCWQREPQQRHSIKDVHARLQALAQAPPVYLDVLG

This assay addresses human TrkA receptor (Homo sapiens (Human), UniProt P04629). Briefly: DiscoverX PathHunter TrkA functional assay. The conditions noted are these: U2OS cells expressing human TrkA-ProLink, Shc1-EA and p75NTR; compound 1 h, then NGF at ~80% of maximal response for 3 h; luminescence. The class given is cell-based.
Consider `O=C(Nc1cc(Cc2n[nH]c(=O)s2)nn1-c1ccc(F)cc1)c1cc(-c2ncccn2)c(C(F)(F)F)cc1F` [Compound 89, 2-fluoro-N-(1-(4-fluorophenyl)-3-((5-oxo-4,5-dihydro-1,3,4-thiadiazol-2-yl)methyl)-1H-pyrazol-5-yl)-5-(pyrimidin-2-yl)-4-(trifluoromethyl)benzamide], for which the IC50 came out at 0.0048 µM. The compound `Cn1ccc(-c2cc(C(=O)Nc3cc(-c4ccncc4)nn3-c3ccccc3)c(Cl)cc2C(F)(F)F)n1` [Compound 36, 2-chloro-5-(1-methyl-1H-pyrazol-3-yl)-N-(1-phenyl-3-pyridin-4-yl-1H-pyrazol-5-yl)-4-(trifluoromethyl)benzamide] had a concentration for half-maximal inhibition (IC50) of 0.00037 µM. `Cn1ccc(-c2cc(C(=O)Nc3c(-c4ccccc4)ncn3C)ccc2C(F)(F)F)n1` [Compound 12, N-(1-methyl-4-phenyl-1H-imidazol-5-yl)-3-(1-methyl-1H-pyrazol-3-yl)-4-(trifluoromethyl)benzamide] registered an IC50 of 0.019 µM.

As for `NC(=O)c1ccc(-c2cc(NC(=O)c3ccc(C(F)(F)F)cc3Cl)n(-c3ccccc3)n2)nc1` [Compound 4, 6-[5-({[2-chloro-4-(trifluoromethyl)phenyl]carbonyl}amino)-1-phenyl-1H-pyrazol-3-yl]pyridine-3-carboxamide], the IC50 was 0.048 µM. `Cn1ccc(-c2cc(C(=O)Nc3c4c(nn3-c3ccccc3)CC(=O)NC4)c(F)cc2C(F)(F)F)n1` [Compound 108, 2-fluoro-5-(1-methyl-1H-pyrazol-3-yl)-N-(6-oxo-2-phenyl-4,5,6,7-tetrahydro-2H-pyrazolo[4,3-c]pyridin-3-yl)-4-(trifluoromethyl)benzamide] came in with a concentration for half-maximal inhibition (IC50) of 0.0046 µM. `Cn1cc(Cc2cc(NC(=O)c3ccc(C(F)(F)F)c(-c4ccn(C)n4)c3)n(-c3ccc(F)cc3)n2)cn1` [Compound 90, N-(1-(4-fluorophenyl)-3-((1-methyl-1H-pyrazol-4-yl)methyl)-1H-pyrazol-5-yl)-3-(1-methyl-1H-pyrazol-3-yl)-4-(trifluoromethyl)benzamide] returned a half-inhibitory concentration (IC50) of 0.0036 µM. Regarding `Cc1csc(-c2cc(C(=O)Nc3cc(-c4ccccn4)nn3-c3cc(C)[nH]n3)ccc2C(F)(F)F)n1` [Compound 6, N-(5′-methyl-3-pyridin-2-yl-1′H-1,3′-bipyrazol-5-yl)-3-(4-methyl-1,3-thiazol-2-yl)-4-(trifluoromethyl)benzamide], the IC50 turned out to be 0.0017 µM. For `Cn1ccc(-c2cc(C(=O)Nc3c4c(nn3-c3ccc(F)cc3)CCC4)ccc2C(F)(F)F)n1` [Compound 82, N-[2-(4-fluorophenyl)-2,4,5,6-tetrahydrocyclopenta[c]pyrazol-3-yl]-3-(1-methyl-1H-pyrazol-3-yl)-4-(trifluoromethyl)benzamide], the IC50 stood at 0.033 µM. The compound `CNC(=O)Cc1cc(NC(=O)c2cc(-c3ccn(C)n3)c(C(F)(F)F)cc2F)n(-c2ccc(F)cc2)n1` [Compound 114, 2-fluoro-N-(1-(4-fluorophenyl)-3-(2-(methylamino)-2-oxoethyl)-1H-pyrazol-5-yl)-5-(1-methyl-1H-pyrazol-3-yl)-4-(trifluoromethyl)benzamide] displayed an IC50 of 0.0024 µM. Consider `O=C(Nc1cc(-c2ccncc2)nn1-c1ccc(F)cc1)c1ccc(Cl)c(-c2cc[nH]n2)c1` [Compound 42, 4-chloro-N-[1-(4-fluorophenyl)-3-pyridin-4-yl-1H-pyrazol-5-yl]-3-(1H-pyrazol-3-yl)benzamide], for which 0.11 µM corresponded to half-maximal inhibition (IC50). `Cc1cc(-n2nc(C(=O)NCc3cccnc3)cc2NC(=O)c2cc(-c3ccn(C)n3)c(C(F)(F)F)cc2F)[nH]n1` [Compound 76, 5-({[2-fluoro-5-(1-methyl-1H-pyrazol-3-yl)-4-(trifluoromethyl)phenyl]carbonyl}amino)-5′-methyl-N-(pyridin-3-ylmethyl)-2′H-1,3′-bipyrazole-3-carboxamide] gave a 50% inhibitory concentration (IC50) of 0.00039 µM. Regarding `Cn1ccc(-c2cc(C(=O)Nc3cc(-c4ccncc4)nn3-c3ccc(F)c(F)c3)ccc2C(F)(F)F)n1` [Compound 9, N-[1-(3,4-difluorophenyl)-3-pyridin-4-yl-1H-pyrazol-5-yl]-3-(1-methyl-1H-pyrazol-3-yl)-4-(trifluoromethyl)benzamide], the IC50 is 0.0097 µM. The compound `CC(O)c1ccc(-c2cc(NC(=O)c3cc(-c4ncccn4)c(C(F)(F)F)cc3F)n(-c3ccc(F)cc3)n2)nc1` (single isomer, unassigned) [Compound 100, (S or R)-2-fluoro-N-(1-(4-fluorophenyl)-3-(5-(1-hydroxyethyl)pyridin-2-yl)-1H-pyrazol-5-yl)-5-(pyrimidin-2-yl)-4-(trifluoromethyl)benzamide] yielded an IC50 of 0.012 µM. For `Cn1ccc(-c2cc(C(=O)Nc3snnc3-c3ccccc3)ccc2C(F)(F)F)n1` [Compound 19, 3-(1-methyl-1H-pyrazol-3-yl)-N-(4-phenyl-1,2,3-thiadiazol-5-yl)-4-(trifluoromethyl)benzamide], 2.8 µM corresponded to half-maximal inhibition (IC50). As for `Cc1nc(-c2nc(C)n(C)c2NC(=O)c2ccc(C(F)(F)F)c(-c3ccn(C)n3)c2)cs1` [Compound 53, N-[1,2-dimethyl-4-(2-methyl-1,3-thiazol-4-yl)-1H-imidazol-5-yl]-3-(1-methyl-1H-pyrazol-3-yl)-4-(trifluoromethyl)benzamide], the figure is 0.59 µM; as for `Cc1csc(-c2cc(C(=O)Nc3cc(C)nn3-c3ccccc3)ccc2C(F)(F)F)n1` [Compound 3, N-(3-methyl-1-phenyl-1H-pyrazol-5-yl)-3-(4-methyl-1,3-thiazol-2-yl)-4-(trifluoromethyl)benzamide], 0.0054 µM. `Cc1nc(-c2ccccc2)c(NC(=O)c2ccc(C(F)(F)F)c(-c3ccn(C)n3)c2)[nH]1` [Compound 13, N-(2-methyl-4-phenyl-1H-imidazol-5-yl)-3-(1-methyl-1H-pyrazol-3-yl)-4-(trifluoromethyl)benzamide]: the IC50 was 0.038 µM. Turning to `O=C(Nc1cc(C(=O)N2CCC2)nn1-c1ccc(F)cc1)c1cc(-c2ncccn2)c(C(F)(F)F)cc1F` [Compound 88, N-(3-(azetidine-1-carbonyl)-1-(4-fluorophenyl)-1H-pyrazol-5-yl)-2-fluoro-5-(pyrimidin-2-yl)-4-(trifluoromethyl)benzamide], inhibition was half-maximal at 0.014 µM (IC50). To `O=C(Nc1cc(Cc2n[nH]c(=O)o2)nn1-c1ccc(F)cc1)c1cc(-c2ncccn2)c(C(F)(F)F)cc1F` [Compound 113, 2-fluoro-N-(1-(4-fluorophenyl)-3-((5-oxo-4,5-dihydro-1,3,4-oxadiazol-2-yl)methyl)-1H-pyrazol-5-yl)-5-(pyrimidin-2-yl)-4-(trifluoromethyl)benzamide] belongs 0.015 µM. To `CC(O)c1cc(NC(=O)c2cc(-c3ncccn3)c(C(F)(F)F)cc2F)n(-c2ccc(F)cc2)n1` (single isomer, unassigned) [Compound 99, (S or R)-2-fluoro-N-(1-(4-fluorophenyl)-3-(1-hydroxyethyl)-1H-pyrazol-5-yl)-5-(pyrimidin-2-yl)-4-(trifluoromethyl)benzamide] belongs 0.016 µM; to `Cn1ccc(-c2cc(C(=O)Nc3oncc3-c3ccccc3)ccc2C(F)(F)F)n1` [Compound 17, 3-(1-methyl-1H-pyrazol-3-yl)-N-(4-phenylisoxazol-5-yl)-4-(trifluoromethyl)benzamide], 0.17 µM; to `O=C(Nc1cc(Cn2cccn2)nn1-c1ccc(F)cc1)c1cc(-c2ncccn2)c(C(F)(F)F)cc1F` [Compound 87, N-(3-((1H-pyrazol-1-yl)methyl)-1-(4-fluorophenyl)-1H-pyrazol-5-yl)-2-fluoro-5-(pyrimidin-2-yl)-4-(trifluoromethyl)benzamide], 0.0066 µM. `O=C(NC1CC1)c1cc(NC(=O)c2ccc(C(F)(F)F)cc2Cl)n(-c2ccccc2)n1` [Compound 2, 5-({[2-chloro-4-(trifluoromethyl)phenyl]carbonyl}amino)-N-cyclopropyl-1-phenyl-1H-pyrazole-3-carboxamide] showed an IC50 of 0.06 µM.

In the case of `O=C(Nc1cc(-c2ncccn2)nn1-c1ccc(F)cc1)c1cc(-c2cc[nH]n2)c(C(F)(F)F)cc1F` [Compound 64, 2-fluoro-N-[1-(4-fluorophenyl)-3-pyrimidin-2-yl-1H-pyrazol-5-yl]-5-(1H-pyrazol-3-yl)-4-(trifluoromethyl)benzamide], inhibition was half-maximal at 0.022 µM (IC50).

In turn, `Cc1csc(-c2cc(C(=O)Nc3cc(-c4cnn(C)c4)nn3-c3cc(C)[nH]n3)ccc2C(F)(F)F)n1` [Compound 5, N-(1″,5-dimethyl-1H,1″H-3,1′:3′,4″-terpyrazol-5′-yl)-3-(4-methyl-1,3-thiazol-2-yl)-4-(trifluoromethyl)benzamide] yielded an IC50 of 0.00085 µM. To `Cn1ccc(-c2cc(C(=O)Nc3cn[nH]c3-c3ccccc3)c(Cl)cc2C(F)(F)F)n1` [Compound 49, 2-chloro-5-(1-methyl-1H-pyrazol-3-yl)-N-(5-phenyl-1H-pyrazol-4-yl)-4-(trifluoromethyl)benzamide] belongs 0.0058 µM. As for `Cn1ccc(-c2cc(C(=O)Nc3c(-c4ccccc4)nc(C(N)=O)n3C)ccc2C(F)(F)F)n1` [Compound 50, 1-methyl-5-({[3-(1-methyl-1H-pyrazol-3-yl)-4-(trifluoromethyl)phenyl]carbonyl}amino)-4-phenyl-1H-imidazole-2-carboxamide], the figure is 0.0057 µM; as for `Cn1ccc(-c2cc(C(=O)Nc3cn(C)nc3-c3ccccc3)c(F)cc2C(F)(F)F)n1` [Compound 65, 2-fluoro-N-(1-methyl-3-phenyl-1H-pyrazol-4-yl)-5-(1-methyl-1H-pyrazol-3-yl)-4-(trifluoromethyl)benzamide], 0.0045 µM; as for `Cc1nc(-c2ccccc2)c(NC(=O)c2cc(-c3ccn(C)n3)c(C(F)(F)F)cc2F)n1C` [Compound 63, N-(1,2-dimethyl-4-phenyl-1H-imidazol-5-yl)-2-fluoro-5-(1-methyl-1H-pyrazol-3-yl)-4-(trifluoromethyl)benzamide], 0.0084 µM. As to `O=C(Nc1cn[nH]c1-c1ccccc1)c1cc(-c2cc[nH]n2)c(C(F)(F)F)cc1F` [Compound 62, 2-fluoro-N-(5-phenyl-1H-pyrazol-4-yl)-5-(1H-pyrazol-3-yl)-4-(trifluoromethyl)benzamide], the IC50 came out at 0.085 µM.

Values taken from US9914736B2, “TrKA kinase inhibitors, compositions and methods thereof” (Merck Sharp & Dohme Corp., priority 2014, dated 2018).
